What all share (test): biochemical
What all share (parameters): DiscoverX kinase panel, active-site competition binding (KINOMEscan type), percent of control at one concentration
Holding throughout (settings): competition binding, percent of control

In experiment [1] the target is T1, ABL1(F317L)-phosphorylated (Homo sapiens, UniProt P00519, F317L).
T1 construct: phosphorylated

Experiment [2] deals with BRAF(V600E) (Homo sapiens, UniProt P15056, V600E).
The target in experiment [3] is CSF1R (Homo sapiens, UniProt P07333).
In experiment [4] the target is EGFR(L747-S752del, P753S) (Homo sapiens, UniProt P00533, DEL747-752/P753S).
For experiment [5], the target named is FER (Homo sapiens, UniProt P16591).
Experiment [6] has as its target FLT3(D835V) (Homo sapiens, UniProt P36888, D835V).
The target of experiment [7] is FLT3(K663Q) (Homo sapiens, UniProt P36888, K663Q).
Experiment [8] deals with HIPK2 (Homo sapiens, UniProt Q9H2X6).
In experiment [9] the target is KIT(A829P) (Homo sapiens, UniProt P10721, A829P).
The target in experiment [10] is MAP4K5 (Homo sapiens, UniProt Q9Y4K4).
Experiment [11] addresses T2, PCTK1 (Homo sapiens, UniProt Q00536).
T2 construct: gene CDK16

The target of experiment [12] is PIK3CA (Homo sapiens, UniProt P42336).
The target of experiment [13] is PIK3CA(C420R) (Homo sapiens, UniProt P42336, C420R).
The target in experiment [14] is T3, PKAC-alpha (Homo sapiens, UniProt P17612).
T3 construct: gene PRKACA

Experiment [15] addresses PLK2 (Homo sapiens, UniProt Q9NYY3).
For experiment [16], the target named is PRKG2 (Homo sapiens, UniProt Q13237).
Experiment [17] has as its target T4, RPS6KA5(Kin.Dom.1-N-terminal) (Homo sapiens, UniProt O75582).
T4 construct: Kin.Dom.1-N-terminal

Experiment [18] has as its target T5, RPS6KA5(Kin.Dom.2-C-terminal) (Homo sapiens, UniProt O75582).
T5 construct: Kin.Dom.2-C-terminal

The target of experiment [19] is SRPK1 (Homo sapiens, UniProt Q96SB4).
Experiment [20] concerns the target VRK2 (Homo sapiens, UniProt Q86Y07).

Structures are written as SMILES.

Sequence of SRPK1 (Q96SB4 whole entry): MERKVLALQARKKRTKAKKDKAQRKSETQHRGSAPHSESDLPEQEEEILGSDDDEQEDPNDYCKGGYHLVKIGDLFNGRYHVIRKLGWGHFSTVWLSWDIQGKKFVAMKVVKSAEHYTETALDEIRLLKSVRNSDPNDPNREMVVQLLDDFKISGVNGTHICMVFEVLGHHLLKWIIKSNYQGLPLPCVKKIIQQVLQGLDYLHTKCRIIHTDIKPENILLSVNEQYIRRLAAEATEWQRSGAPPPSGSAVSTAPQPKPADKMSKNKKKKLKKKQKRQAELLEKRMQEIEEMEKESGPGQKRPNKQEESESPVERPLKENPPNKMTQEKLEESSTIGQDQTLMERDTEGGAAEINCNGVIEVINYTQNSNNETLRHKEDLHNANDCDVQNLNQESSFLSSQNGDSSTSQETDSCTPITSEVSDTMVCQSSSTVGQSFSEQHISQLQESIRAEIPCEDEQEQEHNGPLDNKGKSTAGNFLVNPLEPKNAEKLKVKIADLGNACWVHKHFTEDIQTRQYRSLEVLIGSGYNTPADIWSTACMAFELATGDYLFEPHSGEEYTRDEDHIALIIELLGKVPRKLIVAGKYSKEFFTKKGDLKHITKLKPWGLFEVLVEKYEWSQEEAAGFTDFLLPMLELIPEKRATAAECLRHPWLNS
Sequence of CSF1R (P07333 whole entry): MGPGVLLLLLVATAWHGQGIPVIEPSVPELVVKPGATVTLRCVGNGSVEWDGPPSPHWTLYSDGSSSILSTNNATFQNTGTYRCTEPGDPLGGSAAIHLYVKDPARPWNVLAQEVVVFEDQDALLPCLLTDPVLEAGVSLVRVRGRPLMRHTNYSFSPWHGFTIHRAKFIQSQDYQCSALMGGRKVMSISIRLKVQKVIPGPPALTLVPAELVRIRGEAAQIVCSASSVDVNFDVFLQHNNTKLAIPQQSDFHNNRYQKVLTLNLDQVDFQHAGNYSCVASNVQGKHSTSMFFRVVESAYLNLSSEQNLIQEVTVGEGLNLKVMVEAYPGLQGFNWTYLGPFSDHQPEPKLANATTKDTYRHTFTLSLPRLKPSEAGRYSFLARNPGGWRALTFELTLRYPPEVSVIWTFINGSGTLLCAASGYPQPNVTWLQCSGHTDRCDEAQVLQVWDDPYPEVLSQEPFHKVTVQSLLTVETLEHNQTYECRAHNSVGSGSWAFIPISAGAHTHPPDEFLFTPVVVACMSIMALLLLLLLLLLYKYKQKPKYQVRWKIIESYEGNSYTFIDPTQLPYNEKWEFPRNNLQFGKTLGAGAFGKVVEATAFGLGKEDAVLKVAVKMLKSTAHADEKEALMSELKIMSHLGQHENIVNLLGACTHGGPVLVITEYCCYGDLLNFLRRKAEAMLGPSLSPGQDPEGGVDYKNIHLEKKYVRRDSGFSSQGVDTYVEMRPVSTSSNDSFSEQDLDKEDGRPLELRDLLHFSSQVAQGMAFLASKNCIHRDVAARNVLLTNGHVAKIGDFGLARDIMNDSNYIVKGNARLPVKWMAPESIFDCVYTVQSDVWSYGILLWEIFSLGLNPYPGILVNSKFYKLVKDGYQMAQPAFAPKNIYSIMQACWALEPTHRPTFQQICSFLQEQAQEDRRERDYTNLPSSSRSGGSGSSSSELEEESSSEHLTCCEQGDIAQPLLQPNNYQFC
Sequence of MAP4K5 (Q9Y4K4 whole entry): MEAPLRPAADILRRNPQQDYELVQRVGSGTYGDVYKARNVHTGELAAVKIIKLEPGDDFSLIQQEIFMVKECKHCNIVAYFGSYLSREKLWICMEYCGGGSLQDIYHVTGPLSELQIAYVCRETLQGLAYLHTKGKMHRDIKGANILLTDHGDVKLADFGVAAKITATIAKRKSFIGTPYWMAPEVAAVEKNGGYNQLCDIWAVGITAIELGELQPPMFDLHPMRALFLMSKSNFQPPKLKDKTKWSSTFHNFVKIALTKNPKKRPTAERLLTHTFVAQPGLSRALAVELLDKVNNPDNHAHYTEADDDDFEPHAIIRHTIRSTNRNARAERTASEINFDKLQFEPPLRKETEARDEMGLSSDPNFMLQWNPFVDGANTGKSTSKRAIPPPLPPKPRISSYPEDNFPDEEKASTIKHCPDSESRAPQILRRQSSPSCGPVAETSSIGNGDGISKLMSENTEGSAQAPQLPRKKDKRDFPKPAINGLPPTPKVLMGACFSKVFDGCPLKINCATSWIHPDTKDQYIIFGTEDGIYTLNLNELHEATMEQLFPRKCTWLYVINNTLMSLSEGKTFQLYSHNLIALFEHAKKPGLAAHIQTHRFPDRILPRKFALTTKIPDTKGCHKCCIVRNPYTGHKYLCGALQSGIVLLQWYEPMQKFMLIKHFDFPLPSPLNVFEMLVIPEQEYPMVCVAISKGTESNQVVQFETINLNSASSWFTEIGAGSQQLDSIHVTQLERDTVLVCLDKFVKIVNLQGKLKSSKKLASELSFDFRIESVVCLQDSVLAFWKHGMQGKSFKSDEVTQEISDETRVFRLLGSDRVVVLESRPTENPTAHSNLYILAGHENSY
Sequence of PIK3CA(C420R) (P42336 whole entry C420R): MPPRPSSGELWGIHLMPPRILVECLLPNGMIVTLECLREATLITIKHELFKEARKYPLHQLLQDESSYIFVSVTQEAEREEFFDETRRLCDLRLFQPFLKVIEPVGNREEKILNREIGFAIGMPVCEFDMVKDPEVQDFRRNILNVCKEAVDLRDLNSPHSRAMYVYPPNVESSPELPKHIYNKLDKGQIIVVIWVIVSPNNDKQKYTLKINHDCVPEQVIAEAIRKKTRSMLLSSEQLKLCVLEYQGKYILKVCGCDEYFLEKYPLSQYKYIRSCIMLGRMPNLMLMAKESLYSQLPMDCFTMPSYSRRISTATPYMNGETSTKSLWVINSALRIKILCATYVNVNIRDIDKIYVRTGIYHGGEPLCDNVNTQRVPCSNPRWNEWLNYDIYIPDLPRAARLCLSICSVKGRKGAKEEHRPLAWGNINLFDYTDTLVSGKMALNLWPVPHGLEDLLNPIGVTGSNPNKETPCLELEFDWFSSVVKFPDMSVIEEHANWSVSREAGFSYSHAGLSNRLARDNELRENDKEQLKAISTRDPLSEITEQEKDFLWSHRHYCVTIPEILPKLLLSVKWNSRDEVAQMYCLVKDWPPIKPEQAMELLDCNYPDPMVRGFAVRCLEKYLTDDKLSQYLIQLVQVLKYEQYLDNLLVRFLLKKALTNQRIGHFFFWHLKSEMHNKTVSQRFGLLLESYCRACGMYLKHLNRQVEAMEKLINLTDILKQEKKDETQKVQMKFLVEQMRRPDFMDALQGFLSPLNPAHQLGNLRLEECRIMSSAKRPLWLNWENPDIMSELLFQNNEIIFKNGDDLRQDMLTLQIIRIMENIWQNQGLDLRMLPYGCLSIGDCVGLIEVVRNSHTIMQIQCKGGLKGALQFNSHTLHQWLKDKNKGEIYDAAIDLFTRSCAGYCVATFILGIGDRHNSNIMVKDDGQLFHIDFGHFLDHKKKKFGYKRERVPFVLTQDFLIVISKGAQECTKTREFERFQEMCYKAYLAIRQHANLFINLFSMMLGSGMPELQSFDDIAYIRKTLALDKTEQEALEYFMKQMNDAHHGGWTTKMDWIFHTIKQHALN
Sequence of EGFR(L747-S752del, P753S) (P00533 with tags, fused parts or gaps DEL747-752/P753S): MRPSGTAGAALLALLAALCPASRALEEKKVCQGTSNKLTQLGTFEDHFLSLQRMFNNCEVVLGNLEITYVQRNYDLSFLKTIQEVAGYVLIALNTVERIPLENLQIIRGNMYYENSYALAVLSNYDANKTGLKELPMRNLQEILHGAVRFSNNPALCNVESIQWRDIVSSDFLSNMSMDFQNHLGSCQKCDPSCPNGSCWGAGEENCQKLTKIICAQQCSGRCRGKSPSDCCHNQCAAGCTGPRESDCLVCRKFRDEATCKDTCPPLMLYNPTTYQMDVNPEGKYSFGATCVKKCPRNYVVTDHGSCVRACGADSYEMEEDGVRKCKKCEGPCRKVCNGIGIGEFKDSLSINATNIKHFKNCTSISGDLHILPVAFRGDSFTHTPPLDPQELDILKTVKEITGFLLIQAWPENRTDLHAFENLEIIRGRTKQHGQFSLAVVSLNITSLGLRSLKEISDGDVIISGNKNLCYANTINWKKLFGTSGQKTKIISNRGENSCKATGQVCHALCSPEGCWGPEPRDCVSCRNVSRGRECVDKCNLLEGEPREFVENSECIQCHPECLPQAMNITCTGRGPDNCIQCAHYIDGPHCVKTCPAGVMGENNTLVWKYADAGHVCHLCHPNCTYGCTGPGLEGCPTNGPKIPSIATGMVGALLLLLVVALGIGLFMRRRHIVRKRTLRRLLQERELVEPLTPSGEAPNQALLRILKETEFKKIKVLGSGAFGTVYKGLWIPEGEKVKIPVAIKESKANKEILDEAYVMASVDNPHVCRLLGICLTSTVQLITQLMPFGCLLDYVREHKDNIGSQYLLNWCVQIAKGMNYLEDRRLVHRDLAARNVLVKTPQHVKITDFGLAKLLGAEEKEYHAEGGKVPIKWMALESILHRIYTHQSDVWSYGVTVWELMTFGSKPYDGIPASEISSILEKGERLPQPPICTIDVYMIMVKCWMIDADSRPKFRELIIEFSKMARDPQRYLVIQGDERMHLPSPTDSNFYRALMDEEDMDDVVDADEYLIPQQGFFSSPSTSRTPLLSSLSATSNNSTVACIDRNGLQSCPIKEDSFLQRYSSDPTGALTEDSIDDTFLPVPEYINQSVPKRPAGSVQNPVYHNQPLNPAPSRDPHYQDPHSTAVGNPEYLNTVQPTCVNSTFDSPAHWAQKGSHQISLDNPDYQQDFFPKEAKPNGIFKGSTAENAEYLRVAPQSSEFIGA
Sequence of PIK3CA (P42336 whole entry): as the sequence (P42336 whole entry C420R) above, with R420C counted along it

With `COc1cc2c(cn1)N(C)C(=O)[C@@H](NC(=O)c1nc3n(n1)[C@H](c1ccccc1)CC3)CC2` [GNE684, (S)-N-((S)-7-methoxy-1-methyl-2-oxo-2,3,4,5-tetrahydro-1H-pyrido[3,4-b]azepin-3-yl)-5-phenyl-6,7-dihydro-5H-pyrrolo[1,2-b][1,2,4]triazole-2-carboxamide], the remaining binding at 10 µM in experiment [1] was 91%; in experiment [2], 100%; in [3], 100%; in experiment [4], 100%; in experiment [5], 90%; in experiment [6], 88%. Further, the remaining binding at 10 µM in experiment [7] was determined as 100%; in experiment [8], 82%; in experiment [9], 100%; in experiment [10], 91%; in experiment [11] it was 82%; in experiment [12], 100%. Further, the remaining binding at 10 µM in [13] is 100%; in experiment [14], 73%; in [15], 97%; in [16], 94%; in [17], 84%; in experiment [18], 100%. Moreover, the remaining binding at 10 µM came to 93% in experiment [19] and 85% in experiment [20].

The values are drawn from PMC7206119, “RIP1 inhibition blocks inflammatory diseases but not tumor growth or metastases” (Cell Death and Differentiation, 2019).
